Consider 26 compounds from US8138168B1 (Takeda Pharmaceutical Company Limited, priority 2007, dated 2012).

What is called IC50 is the concentration needed to halve the response being measured.

The target of the experiment is T1, Recombinant human renin (Homo sapiens, UniProt P00797).
T1 construct: isolate the active form (residues 67-406); made in house; host or cells: FreeStyle 293-F cells (transient expression of pcDNA3.1(+)/hREN)
T1 sequence (P00797 67-406): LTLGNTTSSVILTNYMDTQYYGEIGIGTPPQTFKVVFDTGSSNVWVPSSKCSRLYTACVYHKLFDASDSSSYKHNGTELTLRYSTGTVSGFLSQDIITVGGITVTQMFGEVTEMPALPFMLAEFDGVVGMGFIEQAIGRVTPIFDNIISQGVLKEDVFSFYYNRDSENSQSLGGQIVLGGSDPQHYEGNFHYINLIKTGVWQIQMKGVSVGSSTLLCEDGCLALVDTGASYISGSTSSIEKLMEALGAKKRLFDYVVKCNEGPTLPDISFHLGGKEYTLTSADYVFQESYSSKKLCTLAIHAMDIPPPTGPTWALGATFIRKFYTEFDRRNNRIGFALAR
Put plainly: In vitro enzymatic activity assay of renin inhibitors (fluorogenic peptide substrate). The settings on record: read-out: IC50 of Exemplified Compounds Against Renin. It is filed as biochemical. A digest of the protocol: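 Enzyme: recombinant human renin, 3 nM final, 10 min compound pre-incubation at 37 °C; buffer 50 mM Hepes pH 7.4 with 0.1 mg/mL BSA or extra 2% BSA; 5% DMSO.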
`COCCCn1c([C@@H]2CCCN(C(=O)C[C@H](N)Cc3ccc(-c4cn(C)c(=O)n(C)c4=O)cc3)C2)nc2ccccc21` [Compound 205, 5-(4-((R)-2-amino-4-((R)-3-(1-(3-methoxypropyl)-1H-benzo[d]imidazol-2-yl)piperidin-1-yl)-4-oxobutyl)phenyl)-1,3-dimethylpyrimidine-2,4(1H,3H)-dione]: the IC50 is less than 0.1 µM.

As for `COCCCn1c([C@@H]2CCCN(C(=O)C[C@H](N)Cc3ccc(-c4ccc(-n5c(C)n[nH]c5=O)cc4)cc3)C2)nc2ccccc21` [Compound 206, 4-(4′-((R)-2-amino-4-((R)-3-(1-(3-methoxypropyl)-1H-benzo[d]imidazol-2-yl)piperidin-1-yl)-4-oxobutyl)biphenyl-4-yl)-3-methyl-1H-1,2,4-triazol-5(4H)-one], the IC50 was less than 0.1 µM. For `COCCCn1c([C@@H]2CCCN(C(=O)C[C@H](N)Cc3ccc(-n4ccccc4=O)cc3)C2)nc2ccccc21` [Compound 207] the value was 0.1 to 1 µM; for `COCCCn1c([C@@H]2CCCN(C(=O)C[C@H](N)Cc3ccc(-n4ccnc4)cc3)C2)nc2ccccc21` [Compound 208, (R)-4-(4-(1H-imidazol-1-yl)phenyl)-3-amino-1-((R)-3-(1-(3-methoxypropyl)-1H-benzo[d]imidazol-2-yl)piperidin-1-yl)butan-1-one], less than 0.1 µM; for `COCCCn1c([C@@H]2CCCN(C(=O)C[C@H](N)Cc3ccc(N4CCCC4=O)cc3)C2)nc2ccccc21` [Compound 209, 1-(4-((R)-2-amino-4-((R)-3-(1-(3-methoxypropyl)-1H-benzo[d]imidazol-2-yl)piperidin-1-yl)-4-oxobutyl)phenyl)pyrrolidin-2-one], 0.1 to 1 µM. For `COCCCn1c([C@@H]2CCCN(C(=O)C[C@H](N)Cc3ccc(-n4ccc(=O)n(C)c4=O)cc3)C2)nc2ccccc21` [Compound 210, 1-(4-((R)-2-amino-4-((R)-3-(1-(3-methoxypropyl)-1H-benzo[d]imidazol-2-yl)piperidin-1-yl)-4-oxobutyl)phenyl)-3-methylpyrimidine-2,4(1H,3H)-dione] the value was 0.1 to 1 µM; for `COCCCn1c([C@@H]2CCCN(C(=O)C[C@H](N)Cc3ccc(-n4c(=O)oc5ccccc54)cc3)C2)nc2ccccc21` [Compound 211], less than 0.1 µM.

Take `COCCCn1c([C@@H]2CCCN(C(=O)C[C@H](N)Cc3ccc(-n4c(=O)[nH]c5ccccc54)cc3)C2)nc2ccccc21` [Compound 212]: the IC50 was less than 0.1 µM. On to `COCCCn1c([C@@H]2CCCN(C(=O)C[C@H](N)Cc3ccc(N4CCOCC4=O)cc3)C2)nc2ccccc21` [Compound 213], for which the IC50 was 0.1 to 1 µM.

Take `COCCCn1c([C@@H]2CCCN(C(=O)C[C@H](N)Cc3ccc(-n4c(=O)n(CCOC)c5ccccc54)cc3)C2)nc2ccccc21` [Compound 214, 1-(4-((R)-2-amino-4-((R)-3-(1-(3-methoxypropyl)-1H-benzo[d]imidazol-2-yl)piperidin-1-yl)-4-oxobutyl)phenyl)-3-(2-methoxyethyl)-1H-benzo[d]imidazol-2(3H)-one]: the IC50 is less than 0.1 µM.

As for `COCCCn1c([C@@H]2CCCN(C(=O)C[C@H](N)Cc3ccc(-n4c(=O)[nH]c5cc(C)c(C)cc54)cc3)C2)nc2ccccc21` [Compound 219, 1-(4-((R)-2-amino-4-((R)-3-(1-(3-methoxypropyl)-1H-benzo[d]imidazol-2-yl)piperidin-1-yl)-4-oxobutyl)phenyl)-5,6-dimethyl-1H-benzo[d]imidazol-2(3H)-one], the IC50 was less than 0.1 µM. For `COCCCn1c([C@@H]2CCCN(C(=O)C[C@H](N)Cc3ccc(-n4c(=O)n(C)c5ccccc54)cc3)C2)nc2ccccc21` [Compound 220, 1-(4-((R)-2-amino-4-((R)-3-(1-(3-methoxypropyl)-1H-benzo[d]imidazol-2-yl)piperidin-1-yl)-4-oxobutyl)phenyl)-3-methyl-1H-benzo[d]imidazol-2(3H)-one] the value was less than 0.1 µM.

For the compound `CCCn1c(=O)n(-c2ccc(C[C@@H](N)CC(=O)N3CCC[C@@H](c4nc5ccccc5n4CCCOC)C3)cc2)c2ccccc21` [Compound 221, 1-(4-((R)-2-amino-4-((R)-3-(1-(3-methoxypropyl)-1H-benzo[d]imidazol-2-yl)piperidin-1-yl)-4-oxobutyl)phenyl)-3-propyl-1H-benzo[d]imidazol-2(3H)-one], the IC50 is less than 0.1 µM.

On to `COCCCn1c([C@@H]2CCCN(C(=O)C[C@H](N)Cc3ccc(-n4c(=O)n(CCO)c5ccccc54)cc3)C2)nc2ccccc21` [Compound 222, 1-(4-((R)-2-amino-4-((R)-3-(1-(3-methoxypropyl)-1H-benzo[d]imidazol-2-yl)piperidin-1-yl)-4-oxobutyl)phenyl)-3-(2-hydroxyethyl)-1H-benzo[d]imidazol-2(3H)-one], for which the IC50 was less than 0.1 µM. In the case of `COCCCn1c([C@@H]2CCCN(C(=O)C[C@H](N)Cc3ccc(-n4ccc5ccccc5c4=O)cc3)C2)nc2ccccc21` [Compound 229, 2-(4-((R)-2-amino-4-((R)-3-(1-(3-methoxypropyl)-1H-benzo[d]imidazol-2-yl)piperidin-1-yl)-4-oxobutyl)phenyl)isoquinolin-1(2H)-one] it was less than 0.1 µM; in that of `COCCCn1c([C@@H]2CCCN(C(=O)C[C@H](N)Cc3ccc(N4CCN(c5ccccc5)CC4)cc3)C2)nc2ccccc21` [Compound 231, (R)-3-amino-1((R)-3-(1-(3-methoxypropyl)-1H-benzo[d]imidazol-2-yl)piperidin-1-yl)-4-(4-(4-phenylpiperazin-1-yl)phenyl)butan-1-one], 0.1 to 1 µM. For the compound `COCCCn1c([C@@H]2CCCN(C(=O)C[C@H](N)Cc3ccc(N4CCN(C(C)=O)CC4)cc3)C2)nc2ccccc21` [Compound 232, (R)-4-(4-(4-acetylpiperazin-1-yl)phenyl)-3-amino-1-((R)-3-(1-(3-methoxypropyl)-1H-benzo[d]imidazol-2-yl)piperidin-1-yl)butan-1-one], the half-maximal inhibitory concentration (IC50) fell in the range of 0.1 to 1 µM. For `COCCCn1c([C@@H]2CCCN(C(=O)C[C@H](N)Cc3ccc(N4CCN(c5ccccc5)C(=O)C4)cc3)C2)nc2ccccc21` [Compound 233, 4-(4-((R)-2-amino-4-((R)-3-(1-(3-methoxypropyl)-1H-benzo[d]imidazol-2-yl)piperidin-1-yl)-4-oxobutyl)phenyl)-1-phenylpiperazin-2-one] the value was 0.1 to 1 µM; for `COCCCn1c([C@@H]2CCCN(C(=O)C[C@H](N)Cc3ccc(N4CCC(O)CC4)cc3)C2)nc2ccccc21` [Compound 234, (R)-3-amino-4-(4-(4-hydroxypiperidin-1-yl)phenyl)-1-((R)-3-(1-(3-methoxypropyl)-1H-benzo[d]imidazol-2-yl)piperidin-1-yl)butan-1-one], greater than 1 µM. In the case of `COCCCn1c([C@@H]2CCCN(C(=O)C[C@H](N)Cc3ccc(N4CCC(CO)CC4)cc3)C2)nc2ccccc21` [Compound 235, (R)-3-amino-4-(4-(4-(hydroxymethyl)piperidin-1-yl)phenyl)-1-((R)-3-(1-(3-methoxypropyl)-1H-benzo[d]imidazol-2-yl)piperidin-1-yl)butan-1-one] it was 0.1 to 1 µM. In the case of `COCCCn1c([C@@H]2CCCN(C(=O)C[C@H](N)Cc3ccc(N4CCC(CCO)CC4)cc3)C2)nc2ccccc21` [Compound 236, (R)-3-amino-4-(4-(4-(2-hydroxyethyl)piperidin-1-yl)phenyl)-1-((R)-3-(1-(3-methoxypropyl)-1H-benzo[d]imidazol-2-yl)piperidin-1-yl)butan-1-one] it was less than 0.1 µM; in that of `COCCCn1c([C@@H]2CCCN(C(=O)C[C@H](N)Cc3ccc(N4CCC(C(=O)OC)CC4)cc3)C2)nc2ccccc21` [Compound 237, methyl 1-(4-((R)-2-amino-4-((R)-3-(1-(3-methoxypropyl)-1H-benzo[d]imidazol-2-yl)ppiperidin-1-yl)-4-oxobutyl)phenyl)piperidine-4-carboxylate], 0.1 to 1 µM; in that of `COCCCn1c([C@@H]2CCCN(C(=O)C[C@H](N)Cc3ccc(Oc4ccccc4)cc3)C2)nc2ccccc21` [Compound 238, (R)-3-amino-1((R)-3-(1-(3-methoxypropyl)-1H-benzo[d]imidazol-2-yl)piperidin-1-yl)-4-(4-phenoxyphenyl)butan-1-one], less than 0.1 µM. For `CC(=O)NCCn1c([C@@H]2CCCN(C(=O)C[C@H](N)Cc3ccc4ccccc4c3)C2)nc2ccccc21` [Compound 239, N-(2-(2-((R)-1((R)-3-amino-4-(naphthalen-2-yl)butanoyl)piperidin-3-yl)-1H-benzo[d]imidazol-1-yl)ethyl)acetamide], the IC50 lay in the range of 0.1 to 1 µM. `COCCCn1c([C@@H]2CCCN(C(=O)[C@H](Cc3ccccc3)C(N)Cc3ccc(Cl)cc3)C2)nc2ccccc21` (stereo partly drawn) [Compound 240, (R)-3-amino-2-benzyl-4-(4-chlorophenyl)-1-((R)-3-(1-(3-methoxypropyl)-1H-benzo[d]imidazol-2-yl)piperidin-1-yl)butan-1-one]: the IC50 is greater than 1 µM. In the case of `COCCCn1c([C@@H]2CCCN(C(=O)C[C@H](N)Cc3ccc4ccccc4c3)C2)nc2c1CCCC2` [Compound 241, (R)-3-amino-1((R)-3-(1-(3-methoxypropyl)-4,5,6,7-tetrahydro-1H-benzo[d]imidazol-2-yl)piperidin-1-yl)-4-(naphthalen-2-yl)butan-1-one], the IC50 was 0.1 to 1 µM.
